The source made the active and inactive calls.
Tests used:
Prothrombin = Prothrombin (Homo sapiens, UniProt P00734); experiment: Thrombin 1536 HTS Dose Response Confirmation. [Related pubchem assays: 1046 (Thrombin 1536 HTS; hits were confirmed in this assay)]; type: functional
Estrogen receptor beta = Estrogen receptor beta (Homo sapiens, UniProt Q92731);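 note: recombinant ER-beta bound to coactivator SRC1 peptide in presence of estradiol agonist; inhibitors block coactivator peptide binding and lower the FRET signal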
[1] = biological target: T1, Oxysterols receptor LXR-beta (Homo sapiens, UniProt P55055); type: functional, cell-based
T1 sequence (P55055 whole entry): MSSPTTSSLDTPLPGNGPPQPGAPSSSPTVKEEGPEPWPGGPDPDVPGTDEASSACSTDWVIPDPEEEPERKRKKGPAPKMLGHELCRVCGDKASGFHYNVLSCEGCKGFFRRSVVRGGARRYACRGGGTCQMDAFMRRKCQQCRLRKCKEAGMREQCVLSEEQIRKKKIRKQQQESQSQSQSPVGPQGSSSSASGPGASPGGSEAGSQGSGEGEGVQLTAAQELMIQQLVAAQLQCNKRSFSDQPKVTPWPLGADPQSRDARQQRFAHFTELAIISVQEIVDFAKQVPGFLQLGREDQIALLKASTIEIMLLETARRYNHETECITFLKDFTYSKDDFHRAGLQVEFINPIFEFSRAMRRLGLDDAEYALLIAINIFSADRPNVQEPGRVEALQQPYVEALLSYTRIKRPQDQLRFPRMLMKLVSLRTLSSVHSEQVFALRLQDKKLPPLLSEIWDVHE

cells [2] = experiment: cells
[3] = viability of uninfected HEp-2 cells – cell-based, HTS, cytotoxicity control for RSV inhibitor project, dose response (AID 2410); type: functional; details: human respiratory syncytial virus
[4] = NIH3T3 cell viability loss – ATP luminescence, mouse fibroblasts, counter-screen, dose response (AID 2010); type: functional, cell-based;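 note: cells exposed to compound for about 90 hours before reading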
[5] = Trypanosoma cruzi growth suppression in host cells – NIH3T3 host cells, beta-gal luminescence, confirmation (AID 2044); type: functional, cell-based;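 note: intracellular parasites grown in NIH/3T3 mouse fibroblasts as host cells; luminescent beta-galactosidase reporter signal from transgenic T. cruzi replicating inside host cells; inhibitors lower the luminescence signal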
[6] = biological target: T2, Serine/threonine-protein phosphatase (Homo sapiens, UniProt Q9BPW0); experiment: Counterscreen for inhibitors of PP1: fluorescence-based biochemical high throughput dose response assay to identify inhibitors of Protein Phosphatase 5 (PP5). [Related pubchem assays: 2034 (Summary (PP5 inhibitors)), 1987 (PP5 inhibitors in singlate), 2235 (PP1 inhibitors in singlate)]
T2 sequence (Q9BPW0 whole entry): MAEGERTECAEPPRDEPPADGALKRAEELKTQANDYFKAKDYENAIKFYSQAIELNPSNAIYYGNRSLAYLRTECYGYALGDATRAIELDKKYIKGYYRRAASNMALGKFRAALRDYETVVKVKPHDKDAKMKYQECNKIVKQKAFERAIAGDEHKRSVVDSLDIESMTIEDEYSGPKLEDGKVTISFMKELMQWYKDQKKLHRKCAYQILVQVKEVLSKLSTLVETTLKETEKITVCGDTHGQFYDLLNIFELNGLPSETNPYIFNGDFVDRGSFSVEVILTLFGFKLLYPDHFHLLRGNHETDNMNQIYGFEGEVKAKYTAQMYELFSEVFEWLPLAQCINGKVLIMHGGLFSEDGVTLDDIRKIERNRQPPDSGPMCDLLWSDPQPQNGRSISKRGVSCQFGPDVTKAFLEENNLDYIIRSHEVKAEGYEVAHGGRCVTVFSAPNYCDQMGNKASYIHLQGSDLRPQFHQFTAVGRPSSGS

[7] = biological target: Serine/threonine-protein phosphatase PP1-alpha catalytic subunit (Homo sapiens, UniProt P62136); experiment: inhibition of protein phosphatase 1 activity – biochemical, fluorescence, dose response (AID 2403);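 note: phosphatase turnover of OMFP into fluorescent 3-O-methylfluorescein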
Aminopeptidase N = biological target: T3, Aminopeptidase N (Plasmodium falciparum FcB1/Columbia, UniProt O96935); experiment: malaria alanyl aminopeptidase activity blockers – biochemical, fluorogenic H-Leu-NHMec substrate, 1536-well (AID 1445); set-up: species or system Plasmodium falciparum 3D7, 3D7
T3 sequence (O96935 whole entry): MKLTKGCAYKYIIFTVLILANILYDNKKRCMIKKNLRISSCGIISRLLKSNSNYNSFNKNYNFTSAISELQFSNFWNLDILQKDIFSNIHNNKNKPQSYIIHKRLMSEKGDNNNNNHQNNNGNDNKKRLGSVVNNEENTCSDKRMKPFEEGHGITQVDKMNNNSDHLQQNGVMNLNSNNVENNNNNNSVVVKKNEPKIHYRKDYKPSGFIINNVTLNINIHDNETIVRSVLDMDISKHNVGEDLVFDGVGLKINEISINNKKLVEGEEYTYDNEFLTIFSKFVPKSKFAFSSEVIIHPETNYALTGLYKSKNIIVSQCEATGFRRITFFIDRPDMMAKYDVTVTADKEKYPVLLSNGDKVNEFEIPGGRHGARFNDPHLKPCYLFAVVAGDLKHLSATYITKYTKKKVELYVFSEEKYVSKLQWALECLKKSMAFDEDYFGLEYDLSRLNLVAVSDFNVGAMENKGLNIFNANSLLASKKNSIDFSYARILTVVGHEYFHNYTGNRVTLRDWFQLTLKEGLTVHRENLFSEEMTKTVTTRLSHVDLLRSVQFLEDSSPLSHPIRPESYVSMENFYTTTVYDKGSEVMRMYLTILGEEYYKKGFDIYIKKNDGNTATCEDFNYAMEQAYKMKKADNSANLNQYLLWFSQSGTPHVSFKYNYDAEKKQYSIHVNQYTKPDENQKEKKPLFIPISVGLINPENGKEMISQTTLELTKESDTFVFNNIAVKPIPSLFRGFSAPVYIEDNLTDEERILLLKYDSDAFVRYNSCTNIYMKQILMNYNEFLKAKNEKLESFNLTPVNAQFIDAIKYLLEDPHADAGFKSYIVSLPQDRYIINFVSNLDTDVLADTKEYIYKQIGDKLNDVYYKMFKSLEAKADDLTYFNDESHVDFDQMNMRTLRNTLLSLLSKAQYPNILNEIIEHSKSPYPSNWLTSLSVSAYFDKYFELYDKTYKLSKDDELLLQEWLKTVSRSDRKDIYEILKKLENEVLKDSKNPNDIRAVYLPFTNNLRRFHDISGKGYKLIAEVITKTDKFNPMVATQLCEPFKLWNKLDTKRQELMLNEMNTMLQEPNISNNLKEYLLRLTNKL

Cytochrome P450 3A4 = Cytochrome P450 3A4 (Homo sapiens, UniProt P08684);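 note: CYP3A4 tested as one member of a cytochrome P450 panel screen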
[8] = Luminescence-based cell-based high throughput dose response assay to identify activators of the DAF-12 from the parasite S. stercoralis (ssDAF-12).; type: functional
[9] = biological target: T1, Oxysterols receptor LXR-beta; type: functional, cell-based; remark: listed apart in the source
[10] = biological target: T1, Oxysterols receptor LXR-beta; experiment: LXR agonists, Gal4 luciferase reporter, dose response, counter-screen for ssDAF-12 agonist project, cell-based, luminescence, HEK293, S. stercoralis campaign (AID 720737); type: functional; details: read-out: IC50 (the source's name)
cells [11] = experiment: cells; remark: listed apart in the source
H4 = experiment: Luminescence Cell-Based Dose Response HTS to Identify Activators of 5'UTR Stem-Loop Driven Prion Protein mRNA Translation in H4 Neuroglioblastoma Cells. [Related pubchem assays: 1829 (Project Summary), 1814 (Primary HTS)]; type: functional; details: Homo sapiens
[12] = Luminescence Cell-Based Dose Response HTS to Identify Activators of Luciferase Translation or Activity in H4 […] Cells. [Related pubchem assays: 1829 (Project Summary), 1814 (Primary HTS)]; type: functional
HT-1080 = experiment: HT1080 cell viability loss – fluorescence readout (AID 620); type: functional, cell-based; details: Homo sapiens
[13] = alpha-synuclein stem-loop luciferase translation blockers – H4 neuroglioma cells, luminescence, confirmation (AID 1988); type: functional, cell-based
[14] = biological target: Luciferin 4-monooxygenase (Photinus pyralis, UniProt P08659); experiment: Counter Screen for Luciferase-based Assay Positives. [Related pubchem assays: 620, 618, 411 ]
[15] = Luminescence Cell-Based Dose Response HTS to Identify Inhibitors of 5'UTR Stem-Loop Driven Prion Protein mRNA Translation in H4 Neuroglioblastoma Cells. [Related pubchem assays: 1827 (Project Summary), 1813 (Primary HTS)]; type: functional
[16] = DRD fibroblast viability loss – cell-based, non-viral oncogenic, luminescence, dose response (AID 1934); type: functional; details: Homo sapiens
BJ [17] = experiment: BJ-TERT fibroblast viability loss – cell-based, RAS-independent, luminescence, dose response (AID 1933); type: functional; details: Homo sapiens
BJ [18] = experiment: BJ-TERT-LT-ST fibroblast viability loss – cell-based, RAS-independent, luminescence, dose response (AID 1935); type: functional; details: Homo sapiens;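 note: BJ fibroblasts immortalized with TERT plus LT and ST oncogenes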
BJ [19] = experiment: cells; type: functional, cell-based; details: Homo sapiens
INS1 = experiment: INS-1E survival protection against cytokine death – cell-based, luminescence, retest, dose response (AID 449756); type: functional; details: Rattus norvegicus;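 note: cell death triggered by IL-1 beta plus TNF-alpha plus IFN-gamma mixture; protective hits raise ATP signal compared with cytokine alone wells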
[20] = viability loss in THP-1 monocytes – THP-1 cells, cytotoxicity control for Vif-APOBEC3G degradation inhibitor project, dose response (AID 1117359); type: functional; details: THP-1
[21] = IGROV1 cell killing – plate reader, dry powder samples, PAX8 inhibitor project, dose response (AID 743043); type: functional, cell-based; details: IGROV-1
Paired box protein Pax-8 = Paired box protein Pax-8 (Homo sapiens, UniProt Q06710); experiment: PAX8 transcriptional activity inhibition in RMG-I – RMG-I cells, luciferase, cherry-pick, dose response (AID 687027); type: functional, cell-based;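 note: luciferase reporter driven by Pax8 target thyroperoxidase promoter measured by SteadyGlo luminescence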
[22] = OVCAR8 cell viability loss – plate reader, dry powder samples, PAX8 project, dose response (AID 743197); type: functional, cell-based; details: OVCAR-8
[23] = OVCAR-3 cell viability loss – plate reader, dry powder samples, PAX8 inhibitor project, dose response (AID 743044); type: functional, cell-based

Sequence of Paired box protein Pax-8 (Q06710 whole entry): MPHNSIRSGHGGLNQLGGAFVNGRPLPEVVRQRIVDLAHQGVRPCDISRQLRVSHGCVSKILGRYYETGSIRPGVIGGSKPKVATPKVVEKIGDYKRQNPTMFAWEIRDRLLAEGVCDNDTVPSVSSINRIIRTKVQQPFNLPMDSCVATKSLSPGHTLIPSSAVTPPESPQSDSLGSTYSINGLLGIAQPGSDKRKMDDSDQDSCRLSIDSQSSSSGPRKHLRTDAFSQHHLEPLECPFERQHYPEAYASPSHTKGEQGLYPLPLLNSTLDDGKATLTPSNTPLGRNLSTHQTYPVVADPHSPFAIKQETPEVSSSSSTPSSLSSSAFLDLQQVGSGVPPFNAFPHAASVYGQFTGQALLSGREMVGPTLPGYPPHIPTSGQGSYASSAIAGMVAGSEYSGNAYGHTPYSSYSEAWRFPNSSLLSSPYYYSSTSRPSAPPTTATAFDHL
Sequence of Luciferin 4-monooxygenase (P08659 whole entry): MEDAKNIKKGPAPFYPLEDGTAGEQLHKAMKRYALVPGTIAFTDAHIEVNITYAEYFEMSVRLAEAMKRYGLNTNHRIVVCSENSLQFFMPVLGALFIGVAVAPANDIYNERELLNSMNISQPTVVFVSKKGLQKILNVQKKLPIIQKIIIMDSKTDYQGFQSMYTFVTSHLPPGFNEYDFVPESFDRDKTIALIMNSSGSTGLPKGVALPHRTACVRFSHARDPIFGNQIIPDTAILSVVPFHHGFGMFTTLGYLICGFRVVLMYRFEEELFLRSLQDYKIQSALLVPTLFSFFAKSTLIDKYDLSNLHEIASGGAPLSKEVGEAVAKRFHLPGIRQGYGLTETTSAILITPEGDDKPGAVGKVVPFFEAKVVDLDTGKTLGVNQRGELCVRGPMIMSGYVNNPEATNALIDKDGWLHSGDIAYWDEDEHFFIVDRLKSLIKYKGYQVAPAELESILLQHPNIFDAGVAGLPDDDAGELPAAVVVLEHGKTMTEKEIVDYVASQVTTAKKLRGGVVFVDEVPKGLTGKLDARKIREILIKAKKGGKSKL
Sequence of Serine/threonine-protein phosphatase PP1-alpha catalytic subunit (P62136 whole entry): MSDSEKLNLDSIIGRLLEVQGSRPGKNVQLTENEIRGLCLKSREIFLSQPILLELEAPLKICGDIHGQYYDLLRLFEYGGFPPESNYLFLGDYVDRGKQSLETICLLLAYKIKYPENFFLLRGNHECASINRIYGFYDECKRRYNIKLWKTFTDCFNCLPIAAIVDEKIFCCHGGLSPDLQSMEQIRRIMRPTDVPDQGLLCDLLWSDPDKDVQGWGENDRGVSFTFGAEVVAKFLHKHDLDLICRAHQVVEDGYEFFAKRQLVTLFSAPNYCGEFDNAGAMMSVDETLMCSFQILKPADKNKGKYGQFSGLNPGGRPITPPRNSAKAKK
Sequence of Estrogen receptor beta (Q92731 whole entry): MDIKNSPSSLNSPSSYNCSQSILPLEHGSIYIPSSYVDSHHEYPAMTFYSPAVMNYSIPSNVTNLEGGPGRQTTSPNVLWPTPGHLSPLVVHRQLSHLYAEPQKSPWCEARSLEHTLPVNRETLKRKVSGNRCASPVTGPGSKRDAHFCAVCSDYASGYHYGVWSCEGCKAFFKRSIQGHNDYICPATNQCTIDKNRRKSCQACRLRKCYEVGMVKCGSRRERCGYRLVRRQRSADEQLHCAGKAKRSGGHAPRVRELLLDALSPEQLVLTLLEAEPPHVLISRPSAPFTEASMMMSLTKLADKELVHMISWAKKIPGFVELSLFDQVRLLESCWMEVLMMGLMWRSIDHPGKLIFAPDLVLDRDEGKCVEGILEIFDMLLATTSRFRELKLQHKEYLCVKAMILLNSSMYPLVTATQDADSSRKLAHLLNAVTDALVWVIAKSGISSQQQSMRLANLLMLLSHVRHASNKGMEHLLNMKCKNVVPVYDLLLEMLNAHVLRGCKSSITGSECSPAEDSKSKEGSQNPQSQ
Sequence of Cytochrome P450 3A4 (P08684 whole entry): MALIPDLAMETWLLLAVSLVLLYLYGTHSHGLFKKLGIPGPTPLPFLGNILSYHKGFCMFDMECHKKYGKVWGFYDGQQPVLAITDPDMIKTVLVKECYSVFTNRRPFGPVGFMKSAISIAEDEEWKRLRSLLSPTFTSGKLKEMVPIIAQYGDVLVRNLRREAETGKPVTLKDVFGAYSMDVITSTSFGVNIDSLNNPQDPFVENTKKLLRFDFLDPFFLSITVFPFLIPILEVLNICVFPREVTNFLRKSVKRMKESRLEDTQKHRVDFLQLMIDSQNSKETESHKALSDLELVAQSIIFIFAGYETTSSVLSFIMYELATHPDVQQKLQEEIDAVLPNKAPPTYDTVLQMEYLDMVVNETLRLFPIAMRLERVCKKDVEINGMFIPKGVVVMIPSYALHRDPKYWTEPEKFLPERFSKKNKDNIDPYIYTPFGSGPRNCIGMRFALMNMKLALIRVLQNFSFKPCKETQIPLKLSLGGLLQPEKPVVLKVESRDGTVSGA

## CC1CCc2c(sc(NC(=O)COC(=O)C3CCCO3)c2C#N)C1 (stereo not drawn)
Prothrombin
  IC50: > 50 µM (not active)

## O=C(Nc1cc(C(F)(F)F)ccc1N1CCOCC1)C1Cc2ccccc2CN1C(=O)c1ccco1 (stereo not drawn)
Estrogen receptor beta
  IC50: 5.94 µM (active)

## COc1ccc(CN2C(=O)c3ccccc3C2C(=O)NC2CCCCCC2)c(OC)c1 (stereo not drawn)
Prothrombin
  IC50: 10.8 µM (active)

## Cc1cc(OCc2cc(C(=O)NCc3cc(C(C)C)no3)no2)cc(C)c1Cl
[1]
  EC50: > 67.5 µM (inactive)

## Cc1ccc(C)c(Nc2c([N+](=O)[O-])cc(C(=O)N3CC(=O)Nc4ccccc43)cc2[N+](=O)[O-])c1
Cells [2]
  IC50: 41.7 µM (active)
[3]
  CC50: 28.3 µM (active)
[4]
  EC50: > 60 µM (inconclusive)
[5]
  EC50: 0.992 µM (active)

## CCOC(=O)c1cnc(-n2nc(C)cc2C)nc1NCCc1ccccc1
[6]
  IC50: > 67 µM (not active)
[4]
  EC50: > 30 µM (not active)
[7]
  IC50: 6.96 µM (active)
[5]
  EC50: 2.04 µM (active)

## CCN1CCN(Cc2c(O)c(Cl)cc3c(C)cc(=O)oc23)CC1
Aminopeptidase N
  IC50: 38.3 µM (active)
Estrogen receptor beta
  IC50: 18 µM (active)

## COc1cnc(-c2ccccn2)nc1Oc1cccc(Cl)c1
[6]
  IC50: > 67 µM (not active)
[7]
  IC50: 8.46 µM (active)

## Cc1ccc(C(=O)N/C(=C/c2ccc(C(C)C)cc2)C(=O)NCCCN2CCOCC2)cc1
Cells [2]
  IC50: 13.2 µM (active)
[3]
  CC50: > 50 µM (active)

## CCOC(=O)CSc1nnc(NC(=O)c2ccccc2)[nH]1
Cytochrome P450 3A4
  AC50: 39.8 µM (inconclusive)
Prothrombin
  IC50: 0.862 µM (active)

## Cn1cc(Cl)c(C(=O)Nc2nc3ccccc3s2)n1
[8]
  IC50: > 67.5 µM (inactive)
[9]
  EC50: > 67.5 µM (inactive)
[10]
  EC50: > 67.5 µM (inactive)
Cells [11]
  EC50: > 67.5 µM (inactive)

## Cn1ccnc1SCC(=O)c1c[nH]c2ccccc12
[8]
  IC50: > 67.5 µM (inactive)
[10]
  EC50: > 67.5 µM (inactive)
H4
  EC50: < 0.195 µM (active)
[12]
  EC50: 0.343 µM (active)

## C=CCn1c(C)cc(C(=O)CSc2nc3ccccc3[nH]2)c1C
HT-1080
  EC50: > 50 µM (not active)
[13]
  EC50: 9.31 µM (active)
[14]
  EC50: < 0.2 µM (active)
[15]
  EC50: 11.1 µM (active)

## Cc1ccc(C(=N)NOC(=O)c2cccs2)cc1
[1]
  EC50: > 67.6 µM (inactive)

## O=C(c1c(Cl)nc2sccn12)N1CCN(c2cccc(Cl)c2)CC1
HT-1080
  EC50: 11.3 µM (active)
[16]
  EC50: 1.56 µM (active)
BJ [17]
  EC50: 3.07 µM (active)
[14]
  EC50: 0.39 µM (active)
BJ [18]
  EC50: 1.36 µM (inconclusive)
BJ [19]
  EC50: 75.7 µM (inconclusive)

## Cc1cc(N2CCOCC2)n2ncc(-c3ccccc3)c2n1
HT-1080
  EC50: > 50 µM (not active)
[9]
  EC50: > 67.5 µM (inactive)
[14]
  EC50: 0.2 µM (active)
Cells [11]
  EC50: > 67.5 µM (inactive)
INS1
  AC50: 7.88 µM (active)

## CCCCN(CCCC)S(=O)(=O)c1ccc(NC(=O)c2cccs2)cc1
[4]
  EC50: > 60 µM (not active)
[20]
  CC50: 27.9 µM (active)
[5]
  EC50: 1.83 µM (active)

## C[C@@H]1CN([C@H](C)CO)C(=O)c2cc(NS(=O)(=O)c3ccccc3)ccc2O[C@@H](C)CCCCO[C@@H]1CN(C)Cc1ccc(Cl)c(Cl)c1
[21]
  AC50: 27.8 µM (active)
Paired box protein Pax-8
  AC50: 4.44 µM (active)
[22]
  AC50: 46.5 µM (active)

## COc1ccc(S(=O)(=O)Nc2ccc3c(c2)C(=O)N([C@@H](C)CO)C[C@H](C)[C@@H](CN(C)Cc2ccc(C(F)(F)F)cc2)OCCCC[C@H](C)O3)cc1
[23]
  AC50: 46.7 µM (active)
[21]
  AC50: 37.9 µM (active)
Paired box protein Pax-8
  AC50: 6.83 µM (active)
[22]
  AC50: > 70 µM (inactive)

## COc1ccccc1S(=O)(=O)N1CC[C@H]2[C@@H](CO)N(C)c3ccc(-c4ccc(C#N)cc4)cc3[C@H]21
[23]
  AC50: 37.8 µM (active)
Paired box protein Pax-8
  AC50: 38.1 µM (active)

## CCOC(=O)N1CCC(/N=c2/c(-c3ccc(C)cc3)c(O)c2=O)CC1
[8]
  IC50: > 67.5 µM (inactive)
[10]
  EC50: > 67.5 µM (inactive)

From ChEMBL document CHEMBL1201862, “PubChem BioAssay data set” (2004)
